Laboratory results reported in PubChem BioAssay (NCI).
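Protocol summary: plate cells (96-well), add compound at 5 concentrations, incubate 48 h, interpolate endpoints linearly. At the GI50, growth is halved. TGI is the concentration that stops growth completely.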

Assays:
Assay in all cases: DTP human tumour cell line panel, 48 h
CCRF-CEM leukemia = tested on: CCRF-CEM leukemia
PC-3 prostate = tested on: PC-3 prostate
BT-549 breast = tested on: BT-549 breast
UO-31 renal = tested on: UO-31 renal
SR leukemia = tested on: SR leukemia
HCT-15 colon = tested on: HCT-15 colon
LOX IMVI melanoma = tested on: LOX IMVI melanoma
OVCAR-5 ovarian = tested on: OVCAR-5 ovarian
MOLT-4 leukemia = tested on: MOLT-4 leukemia
RPMI-8226 leukemia = tested on: RPMI-8226 leukemia
NCI-H226 lung = tested on: NCI-H226 lung
HOP-92 NSCLC = tested on: HOP-92 NSCLC
KM12 colon = tested on: KM12 colon
T-47D breast = tested on: T-47D breast
IGROV1 ovarian = tested on: IGROV1 ovarian
786-0 renal = tested on: 786-0 renal
HCT-116 colon = tested on: HCT-116 colon
EKVX NSCLC = tested on: EKVX NSCLC
NCI-H522 lung = tested on: NCI-H522 lung
HL-60(TB) leukemia = tested on: HL-60(TB) leukemia
SK-MEL-28 melanoma = tested on: SK-MEL-28 melanoma
SF-268 CNS = tested on: SF-268 CNS
DU-145 prostate = tested on: DU-145 prostate
SK-OV-3 ovarian = tested on: SK-OV-3 ovarian
SF-539 CNS = tested on: SF-539 CNS
M14 melanoma = tested on: M14 melanoma
MDA-MB-435 = tested on: MDA-MB-435
SK-MEL-5 melanoma = tested on: SK-MEL-5 melanoma
OVCAR-3 ovarian = tested on: OVCAR-3 ovarian
SW-620 colon = tested on: SW-620 colon
CAKI-1 renal = tested on: CAKI-1 renal
NCI-H23 lung = tested on: NCI-H23 lung
HT29 colon = tested on: HT29 colon
MDA-N = tested on: MDA-N
SNB-75 CNS = tested on: SNB-75 CNS
SN12C renal = tested on: SN12C renal
SK-MEL-2 melanoma = tested on: SK-MEL-2 melanoma
OVCAR-4 ovarian = tested on: OVCAR-4 ovarian
UACC-62 melanoma = tested on: UACC-62 melanoma
NCI/ADR-RES ovarian = tested on: NCI/ADR-RES ovarian
COLO 205 colon = tested on: COLO 205 colon
MCF7 breast = tested on: MCF7 breast
SNB-19 CNS = tested on: SNB-19 CNS
SF-295 CNS = tested on: SF-295 CNS
MALME-3M melanoma = tested on: MALME-3M melanoma
A498 renal = tested on: A498 renal
RXF 393 renal = tested on: RXF 393 renal
K-562 leukemia = tested on: K-562 leukemia
A549 NSCLC = tested on: A549 NSCLC
OVCAR-8 ovarian = tested on: OVCAR-8 ovarian
ACHN renal = tested on: ACHN renal
NCI-H460 lung = tested on: NCI-H460 lung
UACC-257 melanoma = tested on: UACC-257 melanoma
HS 578T breast = tested on: HS 578T breast
U251 CNS = tested on: U251 CNS
MDA-MB-231 breast = tested on: MDA-MB-231 breast
HOP-62 NSCLC = tested on: HOP-62 NSCLC
HCC-2998 colon = tested on: HCC-2998 colon
TK-10 renal = tested on: TK-10 renal

`COc1cc(C2C(Cl)C(=O)N2NC(=O)c2ccc(NC(C)=O)cc2OC)ccc1O` (configuration not stated) showed a TGI (CCRF-CEM leukemia) of 14.6 µM, a TGI (PC-3 prostate) of 55 µM and a TGI (BT-549 breast) of 33.9 µM. The TGI (UO-31 renal) was 95.5 µM, the TGI (SR leukemia) was greater than 100 µM and the TGI (HCT-15 colon) was 40.6 µM. The TGI (LOX IMVI melanoma) was 26.4 µM, the TGI (OVCAR-5 ovarian) was 28.4 µM and the TGI (MOLT-4 leukemia) was 22.1 µM. The TGI (RPMI-8226 leukemia) was 13.4 µM, the TGI (NCI-H226 lung) was 43.7 µM and the TGI (HOP-92 NSCLC) was 31.3 µM. The TGI (KM12 colon) was 68 µM, the TGI (T-47D breast) was 52.2 µM and the TGI (IGROV1 ovarian) was 79.7 µM. It also gave a TGI (786-0 renal) of 33.3 µM, a TGI (HCT-116 colon) of 33.2 µM and a TGI (EKVX NSCLC) of 29.2 µM. The TGI (NCI-H522 lung) was 23 µM, the TGI (HL-60(TB) leukemia) was 44.8 µM and the TGI (SK-MEL-28 melanoma) was 97.8 µM. It also gave a TGI (SF-268 CNS) of 61.5 µM, a TGI (DU-145 prostate) of 43.5 µM and a TGI (SK-OV-3 ovarian) greater than 100 µM. It also gave a TGI (SF-539 CNS) of 48.1 µM, a TGI (M14 melanoma) of 33.9 µM and a TGI (MDA-MB-435) greater than 100 µM. It also gave a TGI (SK-MEL-5 melanoma) of 29.4 µM, a TGI (OVCAR-3 ovarian) of 53.5 µM and a TGI (SW-620 colon) of 76.3 µM. The TGI (CAKI-1 renal) was 94 µM, the TGI (NCI-H23 lung) was 39.8 µM and the TGI (HT29 colon) was 34.1 µM. For the same compound, the TGI (MDA-N) was 50.7 µM, the TGI (SNB-75 CNS) was 80.1 µM and the TGI (SN12C renal) was 35 µM. The TGI (SK-MEL-2 melanoma) was 29.9 µM, the TGI (OVCAR-4 ovarian) was greater than 100 µM and the TGI (UACC-62 melanoma) was 36.2 µM. It also gave a TGI (NCI/ADR-RES ovarian) greater than 100 µM, a TGI (COLO 205 colon) of 32 µM and a TGI (MCF7 breast) of 38.1 µM. For the same compound, the TGI (SNB-19 CNS) was 47.4 µM, the TGI (SF-295 CNS) was greater than 100 µM and the TGI (MALME-3M melanoma) was 53.6 µM. The TGI (A498 renal) was 37.5 µM, the TGI (RXF 393 renal) was 47.4 µM and the TGI (K-562 leukemia) was 55.2 µM. The TGI (A549 NSCLC) was greater than 100 µM, the TGI (OVCAR-8 ovarian) was 73.3 µM and the TGI (ACHN renal) was 50.2 µM.
`Cc1cccc2c(N)c3ccccc3nc12` showed a GI50 (NCI-H460 lung) of 0.523 µM, a TGI (NCI-H460 lung) of 10.5 µM and a GI50 (UACC-257 melanoma) of 1.87 µM. The TGI (UACC-257 melanoma) was 3.63 µM, the GI50 (CCRF-CEM leukemia) was 2.54 µM and the TGI (CCRF-CEM leukemia) was 10.2 µM. It also gave a GI50 (PC-3 prostate) of 2.32 µM, a TGI (PC-3 prostate) of 8.17 µM and a GI50 (HS 578T breast) of 3.44 µM. It also gave a TGI (HS 578T breast) of 17.4 µM, a GI50 (BT-549 breast) of 3.23 µM and a TGI (BT-549 breast) of 12.9 µM. It also gave a GI50 (UO-31 renal) of 0.595 µM, a TGI (UO-31 renal) of 6.09 µM and a GI50 (SR leukemia) of 0.727 µM. The TGI (SR leukemia) was 13.3 µM, the GI50 (HCT-15 colon) was 0.67 µM and the TGI (HCT-15 colon) was 10.4 µM. It also gave a GI50 (LOX IMVI melanoma) of 0.616 µM, a TGI (LOX IMVI melanoma) of 3.66 µM and a GI50 (OVCAR-5 ovarian) of 1.37 µM. The TGI (OVCAR-5 ovarian) was 11.9 µM, the GI50 (MOLT-4 leukemia) was 0.556 µM and the TGI (MOLT-4 leukemia) was 11.1 µM. The GI50 (RPMI-8226 leukemia) was 2.47 µM, the TGI (RPMI-8226 leukemia) was 6.73 µM and the GI50 (NCI-H226 lung) was 1.44 µM. The TGI (NCI-H226 lung) was 6.19 µM, the GI50 (HOP-92 NSCLC) was 2.18 µM and the TGI (HOP-92 NSCLC) was 6.05 µM. The GI50 (KM12 colon) was 1.78 µM, the TGI (KM12 colon) was 12.2 µM and the GI50 (T-47D breast) was 2.19 µM. The TGI (T-47D breast) was 6.85 µM, the GI50 (IGROV1 ovarian) was 2.18 µM and the TGI (IGROV1 ovarian) was 9.67 µM. The GI50 (786-0 renal) was 1.54 µM, the TGI (786-0 renal) was 7.49 µM and the GI50 (HCT-116 colon) was 0.454 µM. The TGI (HCT-116 colon) was 11.2 µM, the GI50 (EKVX NSCLC) was 2.76 µM and the TGI (EKVX NSCLC) was 9.99 µM. For the same compound, the GI50 (U251 CNS) was 2.19 µM, the TGI (U251 CNS) was 7.84 µM and the GI50 (NCI-H522 lung) was 1.45 µM. The TGI (NCI-H522 lung) was 4.12 µM, the GI50 (HL-60(TB) leukemia) was 2.41 µM and the TGI (HL-60(TB) leukemia) was 10.3 µM. It also gave a GI50 (MDA-MB-231 breast) of 1.26 µM, a TGI (MDA-MB-231 breast) of 5.26 µM and a GI50 (HOP-62 NSCLC) of 0.854 µM. The TGI (HOP-62 NSCLC) was 5.3 µM, the GI50 (SK-MEL-28 melanoma) was 2.34 µM and the TGI (SK-MEL-28 melanoma) was 6.53 µM. The GI50 (SF-268 CNS) was 1.5 µM, the TGI (SF-268 CNS) was 9.22 µM and the GI50 (DU-145 prostate) was 1.53 µM. The TGI (DU-145 prostate) was 12.3 µM, the GI50 (SK-OV-3 ovarian) was 2.12 µM and the TGI (SK-OV-3 ovarian) was 17.4 µM. The GI50 (SF-539 CNS) was 1.09 µM, the TGI (SF-539 CNS) was 4.28 µM and the GI50 (M14 melanoma) was 1.87 µM. For the same compound, the TGI (M14 melanoma) was 5.19 µM, the GI50 (HCC-2998 colon) was 1.24 µM and the TGI (HCC-2998 colon) was 4.35 µM. For the same compound, the GI50 (MDA-MB-435) was 1.67 µM, the TGI (MDA-MB-435) was 4.54 µM and the GI50 (SK-MEL-5 melanoma) was 1.77 µM. It also gave a TGI (SK-MEL-5 melanoma) of 3.26 µM, a GI50 (OVCAR-3 ovarian) of 2.13 µM and a TGI (OVCAR-3 ovarian) of 10 µM. It also gave a GI50 (SW-620 colon) of 0.699 µM, a TGI (SW-620 colon) of 11.9 µM and a GI50 (CAKI-1 renal) of 0.966 µM. It also gave a TGI (CAKI-1 renal) of 11.6 µM, a GI50 (NCI-H23 lung) of 1.81 µM and a TGI (NCI-H23 lung) of 7.49 µM. It also gave a GI50 (HT29 colon) of 0.593 µM, a TGI (HT29 colon) of 3.58 µM and a GI50 (SNB-75 CNS) of 1.47 µM. For the same compound, the TGI (SNB-75 CNS) was 4.14 µM, the GI50 (TK-10 renal) was 1.78 µM and the TGI (TK-10 renal) was 8.27 µM. The GI50 (SN12C renal) was 1.16 µM, the TGI (SN12C renal) was 12.7 µM and the GI50 (SK-MEL-2 melanoma) was 1.68 µM. It also gave a TGI (SK-MEL-2 melanoma) of 3.84 µM, a GI50 (OVCAR-4 ovarian) of 1.69 µM and a TGI (OVCAR-4 ovarian) of 11.7 µM. The GI50 (UACC-62 melanoma) was 1.56 µM, the TGI (UACC-62 melanoma) was 4.6 µM and the GI50 (NCI/ADR-RES ovarian) was 1.32 µM. It also gave a TGI (NCI/ADR-RES ovarian) of 12.8 µM, a GI50 (COLO 205 colon) of 0.463 µM and a TGI (COLO 205 colon) of 2.31 µM. It also gave a GI50 (MCF7 breast) of 1.32 µM, a TGI (MCF7 breast) of 11.6 µM and a GI50 (SNB-19 CNS) of 2.06 µM. The TGI (SNB-19 CNS) was 16.7 µM, the GI50 (SF-295 CNS) was 1.67 µM and the TGI (SF-295 CNS) was 10.4 µM. The GI50 (MALME-3M melanoma) was 1.39 µM, the TGI (MALME-3M melanoma) was 3.21 µM and the GI50 (A498 renal) was 0.604 µM. It also gave a TGI (A498 renal) of 2.28 µM, a GI50 (RXF 393 renal) of 1.36 µM and a TGI (RXF 393 renal) of 3.72 µM. It also gave a GI50 (K-562 leukemia) of 1.3 µM, a TGI (K-562 leukemia) of 13.5 µM and a GI50 (A549 NSCLC) of 1.02 µM. It also gave a TGI (A549 NSCLC) of 4.02 µM, a GI50 (OVCAR-8 ovarian) of 0.94 µM and a TGI (OVCAR-8 ovarian) of 10.7 µM. For the same compound, the GI50 (ACHN renal) was 0.561 µM and the TGI (ACHN renal) was 14.5 µM.
